{"source": "ChEMBL document CHEMBL3860060", "about": "“Discovery and Optimization of 1-Phenoxy-2-aminoindanes as Potent, Selective, and Orally Bioavailable Inhibitors of the Na+/H+ Exchanger Type 3 (NHE3)” (J Med Chem, 2016)", "key": {"[1]": {"experiment": "Stability of the compound", "format": "physicochemical"}, "[2]": {"experiment": "Solubility of the compound in aqueous buffer", "format": "physicochemical"}, "[3]": {"experiment": "Distribution coefficient, log D of the compound at pH 7.4", "format": "physicochemical", "conditions": "octanol/water"}, "[4]": {"experiment": "Lipophilicity, log P of the compound", "format": "physicochemical", "conditions": "octanol/water"}, "[5]": {"experiment": "Cmax in Sprague-Dawley rat at 10 mg/kg, po administered as single dose by ESI-LC-MS/MS method", "format": "ADME, organism-based", "set-up": "dose 10 mg/kg, route oral", "conditions": "in vivo"}, "[6]": {"experiment": "Tmax in Sprague-Dawley rat at 10 mg/kg, po administered as single dose by ESI-LC-MS/MS method", "format": "ADME, organism-based", "conditions": "in vivo"}, "[7]": {"experiment": "Plasma concentration in Sprague-Dawley rat at 10 mg/kg, po after 24 hrs administered as single dose by ESI-LC-MS/MS method", "format": "ADME, organism-based"}, "[8]": {"experiment": "Half life in Sprague-Dawley rat at 10 mg/kg, po administered as single dose by ESI-LC-MS/MS method", "format": "ADME, organism-based", "conditions": "in vivo"}, "[9]": {"experiment": "Oral bioavailability in Sprague-Dawley rat at 10 mg/kg administered as single dose by ESI-LC-MS/MS method", "format": "ADME, organism-based", "conditions": "in vivo"}, "[10]": {"experiment": "Ratio of AUC in Sprague-Dawley rat at 100 mg/kg, po administered as single dose by ESI-LC-MS/MS method to AUC in Sprague-Dawley rat at 10 mg/kg, po administered as single dose by ESI-LC-MS/MS method", "format": "ADME, organism-based", "conditions": "in vivo"}, "[11]": {"experiment": "Ratio of Cmax in Sprague-Dawley rat at 100 mg/kg, po administered as single dose by ESI-LC-MS/MS method to Cmax in Sprague-Dawley rat at 10 mg/kg, po administered as single dose by ESI-LC-MS/MS method", "format": "ADME, organism-based", "conditions": "in vivo"}, "[12]": {"experiment": "Ratio of AUC in Sprague-Dawley rat at 300 mg/kg, po administered as single dose by ESI-LC-MS/MS method to AUC in Sprague-Dawley rat at 100 mg/kg, po administered as single dose by ESI-LC-MS/MS method", "format": "ADME, organism-based", "conditions": "in vivo"}, "[13]": {"experiment": "Tmax in Duroc Landrace pig at 3 mg/kg, po administered as single dose by ESI-LC-MS/MS method", "format": "ADME, organism-based, Sus scrofa", "conditions": "in vivo"}, "[14]": {"experiment": "Half life in Duroc Landrace pig at 3 mg/kg, po administered as single dose by ESI-LC-MS/MS method", "format": "ADME, organism-based, Sus scrofa", "conditions": "in vivo"}, "[15]": {"experiment": "Oral bioavailability in Duroc Landrace pig at 3 mg/kg administered as single dose by ESI-LC-MS/MS method", "format": "ADME, organism-based, Sus scrofa", "conditions": "in vivo"}, "[16]": {"experiment": "Oral bioavailability in urethane-chloralose anesthetized pig at 3 mg/kg, id", "format": "ADME, organism-based, Sus scrofa", "conditions": "in vivo"}, "Sus scrofa [17]": {"tested_on": "Sus scrofa", "experiment": "Inhibition of upper airway collapsibility in urethane-chloralose anesthetized pig assessed as time duration for onset of action at 1 mg/kg, id after 4 hrs", "format": "functional"}, "Sus scrofa [18]": {"tested_on": "Sus scrofa", "experiment": "Inhibition of upper airway collapsibility in urethane-chloralose anesthetized pig assessed as time duration for onset of action at 3 mg/kg, id after 4 hrs", "format": "functional"}, "[19]": {"experiment": "Toxicity in anesthetized mongrel dog assessed as induction of major hemodynamic changes at 10 mg/kg, iv", "format": "organism-based, Canis lupus familiaris", "conditions": "in vivo"}, "[20]": {"experiment": "Toxicity in anesthetized mongrel dog assessed as induction of major electrophysiological changes at 10 mg/kg, iv", "format": "organism-based, Canis lupus familiaris", "conditions": "in vivo"}}}
{"smiles": "Cc1nnc(C)n1-c1ccc(O[C@H]2c3cc(Cl)cc(Cl)c3C[C@@H]2N2CC[C@@H](O)C2)c(F)c1.O=P(O)(O)O", "values": [{"measurement": "Stability", "setting": "[1]", "value": "Stable"}, {"measurement": "solubility", "setting": "[2]", "value": "Soluble"}, {"measurement": "logD", "setting": "[3]", "value": 2.06}, {"measurement": "logP", "setting": "[4]", "value": 2.05}, {"measurement": "Cmax", "setting": "[5]", "value": 570, "unit": "ng/mL"}, {"measurement": "Tmax", "setting": "[6]", "value": 1, "unit": "h"}, {"measurement": "concentration at 24 h", "setting": "[7]", "value": "< 1", "unit": "ng/mL"}, {"measurement": "half-life", "setting": "[8]", "value": 2.7, "unit": "h"}, {"measurement": "bioavailability", "setting": "[9]", "value": 42, "unit": "%"}, {"measurement": "Ratio", "setting": "[10]", "value": 2.3}, {"measurement": "Ratio", "setting": "[11]", "value": 2.3}, {"measurement": "Ratio", "setting": "[12]", "value": 1.1}, {"measurement": "Tmax", "setting": "[13]", "value": 0.5, "unit": "h"}, {"measurement": "half-life", "setting": "[14]", "value": 18, "unit": "h"}, {"measurement": "bioavailability", "setting": "[15]", "value": "18 to 98", "unit": "%"}, {"measurement": "bioavailability", "setting": "[16]", "value": 61, "unit": "%"}, {"measurement": "Time", "setting": "Sus scrofa [17]", "value": 1, "unit": "h"}, {"measurement": "Time", "setting": "Sus scrofa [18]", "value": 1.5, "unit": "h"}, {"measurement": "Activity", "setting": "[19]", "value": "Non-Toxic"}, {"measurement": "Activity", "setting": "[20]", "value": "Non-Toxic"}]}
